Molecular target: T1, Androgen receptor (AR) (Homo sapiens, UniProt P10275, T878A)
T1 construct: 5.5×10^5 LNCap cells were injected into each well of a 6-well plate; endogenous in cells; host or cells: LNCaP
T1 sequence (P10275 1-920 T878A): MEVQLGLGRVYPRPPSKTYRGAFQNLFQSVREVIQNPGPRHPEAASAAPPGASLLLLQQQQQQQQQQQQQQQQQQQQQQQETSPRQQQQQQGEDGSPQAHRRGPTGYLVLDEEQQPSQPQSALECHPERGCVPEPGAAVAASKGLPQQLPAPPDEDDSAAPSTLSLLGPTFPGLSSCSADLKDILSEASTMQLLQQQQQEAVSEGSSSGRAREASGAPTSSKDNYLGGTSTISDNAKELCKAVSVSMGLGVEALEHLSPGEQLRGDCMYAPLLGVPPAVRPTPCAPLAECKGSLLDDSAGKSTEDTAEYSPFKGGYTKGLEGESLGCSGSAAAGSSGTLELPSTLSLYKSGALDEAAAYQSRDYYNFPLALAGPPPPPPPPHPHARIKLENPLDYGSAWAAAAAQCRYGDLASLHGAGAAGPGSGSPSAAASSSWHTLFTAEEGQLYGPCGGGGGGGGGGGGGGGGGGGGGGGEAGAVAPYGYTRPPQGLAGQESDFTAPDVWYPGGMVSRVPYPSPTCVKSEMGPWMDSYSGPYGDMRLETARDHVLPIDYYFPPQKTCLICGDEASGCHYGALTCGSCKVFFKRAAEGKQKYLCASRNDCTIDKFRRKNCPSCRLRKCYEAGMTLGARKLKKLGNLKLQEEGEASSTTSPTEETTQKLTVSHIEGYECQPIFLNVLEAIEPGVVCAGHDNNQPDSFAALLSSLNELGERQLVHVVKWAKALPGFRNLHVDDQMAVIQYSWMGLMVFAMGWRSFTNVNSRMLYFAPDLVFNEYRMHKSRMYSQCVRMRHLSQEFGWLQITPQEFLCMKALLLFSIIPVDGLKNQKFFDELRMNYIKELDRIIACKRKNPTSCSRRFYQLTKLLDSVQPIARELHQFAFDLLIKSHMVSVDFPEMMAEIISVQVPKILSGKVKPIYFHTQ
Assay: Assessment of AR proteolytic activity (Western blotting of LNCap cell lysates)
Format: cell-based
Conditions: 24 hours of treatment, Western blotting quantified with Image J
Method: Assessment of AR Proteolytic Activity
Androgen receptor (AR) proteolytic activity of the compound according to the present invention was evaluated as follows: Specifically, 5.5×10^5 LNCap cells were injected into each well of a 6-well plate. […] After 24 hours of treatment, cells were collected and lysed using RIPA Lysis buffer (50 mM Tris-HCl, pH7.5, 150 mM NaCl, 1% Triton X-100, 2 mM EDTA, 0.1% SDS, 0.5% sodium deoxycholate and protease inhibitor cocktail) to make cell lysates. Western blotting was performed, and the results were quantified using Image J program.

Compound	Degradation (1 μM treated in LNCaP, % AR remaining) [%]
CC1(C)[C@H](NC(=O)c2ccc(N3CC[C@H](CN4CC5(C4)CN(c4ccc6c(=O)n(C7CCC(=O)NC7=O)nnc6c4)C5)C3)nc2)C(C)(C)[C@H]1Oc1ccc(C#N)c(Cl)c1 (stereo partly drawn) [Example 190, N-((1r,3R)-3-(3-chloro-4-cyanophenoxy)-2,2,4,4-tetramethylcyclobutyl)-6-((3R)-3-((6-(3-(2,6-dioxopiperidin-3-yl)-4-oxo-3,4-dihydrobenzo[d][1,2,3]triazin-7-yl)-2,6-diazaspiro[3.3]heptan-2-yl)methyl)pyrrolidin-1-yl)nicotinamide]	11
CC1(C)C(NC(=O)c2ccc(N3CC[C@H](CN4CCN(C5CCN(c6ccc7c(=O)n(C8CCC(=O)NC8=O)nnc7c6)CC5)CC4)C3)nc2)C(C)(C)C1Oc1ccc(C#N)c(Cl)c1 (stereo partly drawn) [Example 191, N-((1r,3R)-3-(3-chloro-4-cyanophenoxy)-2,2,4,4-tetramethylcyclobutyl)-6-((3R)-3-((4-(1-(3-(2,6-dioxopiperidin-3-yl)-4-oxo-3,4-dihydrobenzo[d][1,2,3]triazin-7-yl)piperidin-4-yl)piperazin-1-yl)methyl)pyrrolidin-1-yl)nicotinamide]	33
CC1(C)C(NC(=O)c2ccc(N3CC[C@H](CN4CCN(C5CCN(c6ccc7nnn(C8CCC(=O)NC8=O)c(=O)c7c6)CC5)CC4)C3)nc2)C(C)(C)C1Oc1ccc(C#N)c(Cl)c1 (stereo partly drawn) [Example 192, N-((1r,3R)-3-(3-chloro-4-cyanophenoxy)-2,2,4,4-tetramethylcyclobutyl)-6-((3R)-3-((4-(1-(3-(2,6-dioxopiperidin-3-yl)-4-oxo-3,4-dihydrobenzo[d][1,2,3]triazin-6-yl)piperidin-4-yl)piperazin-1-yl)methyl)pyrrolidin-1-yl)nicotinamide]	22
CC1(C)C(NC(=O)c2ccc(N3CCC(CN4CCN(C5CCN(c6ccc7c(=O)n(C8CCC(=O)NC8=O)nnc7c6)CC5)CC4)CC3)nc2)C(C)(C)C1Oc1ccc(C#N)c(Cl)c1 (centres unmarked) [Example 193, N-((1r,3r)-3-(3-chloro-4-cyanophenoxy)-2,2,4,4-tetramethylcyclobutyl)-6-(4-((4-(1-(3-(2,6-dioxopiperidin-3-yl)-4-oxo-3,4-dihydrobenzo[d][1,2,3]triazin-7-yl)piperidin-4-yl)piperazin-1-yl)methyl)piperidin-1-yl)nicotinamide]	12
CC1(C)C(NC(=O)c2ccc(N3CCC(CN4CCN(C5CCN(c6ccc7nnn(C8CCC(=O)NC8=O)c(=O)c7c6)CC5)CC4)CC3)nc2)C(C)(C)C1Oc1ccc(C#N)c(Cl)c1 (centres unmarked) [Example 194, N-((1r,3r)-3-(3-chloro-4-cyanophenoxy)-2,2,4,4-tetramethylcyclobutyl)-6-(4-((4-(1-(3-(2,6-dioxopiperidin-3-yl)-4-oxo-3,4-dihydrobenzo[d][1,2,3]triazin-6-yl)piperidin-4-yl)piperazin-1-yl)methyl)piperidin-1-yl)nicotinamide]	9
CC1(C)[C@H](NC(=O)c2ccc(C#CC3CCN(CC4CCN(c5ccc6c(=O)n(C7CCC(=O)NC7=O)nnc6c5)CC4)CC3)nc2)C(C)(C)[C@H]1Oc1ccc(C#N)c(Cl)c1 (some centres unmarked) [Example 195, N-((1r,3r)-3-(3-chloro-4-cyanophenoxy)-2,2,4,4-tetramethylcyclobutyl)-6-((1-((1-(3-(2,6-dioxopiperidin-3-yl)-4-oxo-3,4-dihydrobenzo[d][1,2,3]triazin-7-yl)piperidin-4-yl)methyl)piperidin-4-yl)ethynyl)nicotinamide]	3
CC1(C)C(NC(=O)c2ccc(C#CC3CCN(CC4CCN(c5ccc6nnn(C7CCC(=O)NC7=O)c(=O)c6c5)CC4)CC3)nc2)C(C)(C)C1Oc1ccc(C#N)c(Cl)c1 (centres unmarked) [Example 196, N-((1r,3r)-3-(3-chloro-4-cyanophenoxy)-2,2,4,4-tetramethylcyclobutyl)-6-((1-((1-(3-(2,6-dioxopiperidin-3-yl)-4-oxo-3,4-dihydrobenzo[d][1,2,3]triazin-6-yl)piperidin-4-yl)methyl)piperidin-4-yl)ethynyl)nicotinamide]	4
CC1(C)C(NC(=O)c2ccc(N3CCC(CCN4CCN(c5ccc6c(=O)n(C7CCC(=O)NC7=O)nnc6c5)CC4)CC3)nc2)C(C)(C)C1Oc1ccc(C#N)c(Cl)c1 (centres unmarked) [Example 197, N-((1r,3r)-3-(3-chloro-4-cyanophenoxy)-2,2,4,4-tetramethylcyclobutyl)-6-(4-(2-(4-(3-(2,6-dioxopiperidin-3-yl)-4-oxo-3,4-dihydrobenzo[d][1,2,3]triazin-7-yl)piperazin-1-yl)ethyl)piperidin-1-yl)nicotinamide]	16
CC1(C)[C@H](NC(=O)c2ccc(N3CCC(CCN4CCN(c5ccc6nnn(C7CCC(=O)NC7=O)c(=O)c6c5)CC4)CC3)nc2)C(C)(C)[C@H]1Oc1ccc(C#N)c(Cl)c1 (some centres unmarked) [Example 198, N-((1r,3r)-3-(3-chloro-4-cyanophenoxy)-2,2,4,4-tetramethylcyclobutyl)-6-(4-(2-(4-(3-(2,6-dioxopiperidin-3-yl)-4-oxo-3,4-dihydrobenzo[d][1,2,3]triazin-6-yl)piperazin-1-yl)ethyl)piperidin-1-yl)nicotinamide]	10
N-((1r,3r)-3-(3-chloro-4-cyanophenoxy)-2,2,4,4-tetramethylcyclobutyl)-4-(4-(1-(3-(2,6-dioxopiperidin-3-yl)-4-oxo-3,4-dihydrobenzo[d][1,2,3]triazin-6-yl)azetidine-3-carbonyl)piperazin-1-yl)benzamide [Example 44]	3.7

Tested on: VCaP cells
Assay: Cytotoxicity assessment (Cell-titer-glo cell viability), VCaP
Conditions: read-out: VCaP (CC50); VCaP cells, 6 days of treatment, Cell-titer-glo, vs DMSO

Compound	CC50 [nM]
CC1(C)C(NC(=O)c2ccc(N3CCN(CC4CCN(CCNC(=O)CNc5ccc6nnn(C7CCC(=O)NC7=O)c(=O)c6c5)CC4)CC3)cc2)C(C)(C)C1Oc1ccc(C#N)c(Cl)c1 (centres unmarked) [Example 59, N-((1r,3r)-3-(3-chloro-4-cyanophenoxy)-2,2,4,4-tetramethylcyclobutyl)-4-(4-((1-(2-(2-((3-(2,6-dioxopiperidin-3-yl)-4-oxo-3,4-dihydrobenzo[d][1,2,3]triazin-6-yl)amino)acetamido)ethyl)piperidin-4-yl)methyl)piperazin-1-yl)benzamide]	~1000
CC1(C)[C@H](NC(=O)c2ccc(N3CCN(CC4CCN(CCNC(=O)C5CN(c6ccc7nnn(C8CCC(=O)NC8=O)c(=O)c7c6)C5)CC4)CC3)cc2)C(C)(C)[C@H]1Oc1ccc(C#N)c(Cl)c1 (some centres unmarked) [Example 69, N-(2-(4-((4-(4-(((1r,3r)-3-(3-chloro-4-cyanophenoxy)-2,2,4,4-tetramethylcyclobutyl)carbamoyl)phenyl)piperazin-1-yl)methyl)piperidin-1-yl)ethyl)-1-(3-(2,6-dioxopiperidin-3-yl)-4-oxo-3,4-dihydrobenzo[d][1,2,3]triazin-6-yl)azetidine-3-carboxamide]	345
CC1(C)C(NC(=O)c2ccc(C#CCC3CCN(C4CCN(c5ccc6nnn(C7CCC(=O)NC7=O)c(=O)c6c5)CC4)CC3)cc2)C(C)(C)C1Oc1ccc(C#N)c(Cl)c1 (centres unmarked) [Example 89, N-((1r,3r)-3-(3-chloro-4-cyanophenoxy)-2,2,4,4-tetramethylcyclobutyl)-4-(3-(1 ? (3-(2,6-dioxopiperidin-3-yl)-4-oxo-3,4-dihydrobenzo[d][1,2,3]triazin-6-yl)-[1,4 ? bipiperdin]-4-yl)prop-1-yn-1-yl)benzamide]	112
CC1(C)[C@H](NC(=O)c2ccc(N3CCN(Cc4cn(-c5ccc6nnn(C7CCC(=O)NC7=O)c(=O)c6c5)nn4)CC3)cc2)C(C)(C)[C@H]1Oc1ccc(C#N)c(Cl)c1 (some centres unmarked) [Example 91, N-((1r,3r)-3-(3-chloro-4-cyanophenoxy)-2,2,4,4-tetramethylcyclobutyl)-4-(4-((1-(3-(2,6-dioxopiperidin-3-yl)-4-oxo-3,4-dihydrobenzo[d][1,2,3]triazin-6-yl)-1H-1,2,3-triazol-4-yl)methyl)piperazin-1-yl)benzamide]	262

From US20240018123A1, “COMPOUND FOR INHIBITING OR DISINTEGRATING ANDROGEN RECEPTOR, AND PHARMACEUTICAL USE THEREOF” (KOREA RESEARCH INSTITUTE OF CHEMICAL TECHNOLOGY, priority 2020, published 2024)
